Measurements reported in patent US20050106305A1, “Beverage compositions comprising monatin and methods of making same” (Cargill, Inc., priority 2003, published 2005).
Read-outs that look alike come from different tables or passages of the source. Where a SMILES comes first, the peptide text is derived from it.

What was measured:
[1] = Taste profiling of lemon/lime carbonates and colas; format: in vivo; details: HFCS 10%, aspartame 500 ppm, sucralose 200 ppm, blends 30.8 ppm/5.0%; for Average Score: score 1, poor-5, good, sucrose 10%
Protocol: Cola and lemon/lime beverages were prepared using the following formulations and sweetened with sucrose, HFCS (55% fructose), aspartame, sucralose, monatin (racemic mix described in Example 14), monatin/sucrose, or monatin/HFCS. One part of syrup was added to 5.5 parts carbonated water and evaluated.
Assessments were carried out ‘double blind’ by a panel of trained tasters. The sucrose-sweetened product was identified as the control and all other products randomly coded. Panelists were asked to assess the randomly coded sample relative to the control for the following attributes:
Panelists also were asked assign a score (1; poor-5; good) for the quality of the sweetener system. A summary of the comments generated together with the average score awarded is presented in Tables 12 and 13 for lemon/lime carbonates and colas, respectively. […] Blends of monatin/carbohydrate rated higher. In the cola, monatin was similar to aspartame.

[2] = Sensory evaluation of soft drinks (lemon/lime, orangeade, cola); format: in vivo; details: Lemon/lime soft drink; aspartame 500 ppm, sucralose 200 ppm, R,R monatin 42 ppm
Protocol: Beverages (cola, lemon-lime and orange) were formulated and sweetened with aspartame, sucralose or R,R monatin. Qualitative evaluation was carried out.
The term “throw” refers to dilution in water. For example, a throw of “1+4” means 1 part concentrate formulation to 4 parts water. Thus, if a concentrate formulation includes 0.021% wt/vol (i.e., 210 ppm) of R,R monatin, for example, a throw of 1+4 makes a diluted beverage containing 42 ppm (210 ppm/5) R,R monatin.
Final ready-to-drink beverages (after throw) contained sweetener concentrations as follows:
Evaluation of these soft drinks was carried out by a panel (n=6) of assessors who evaluated each set of drinks on separate tasting occasions.

[3] = Sensory stability of monatin and aspartame at pH 2.5, 3.0, 4.0 at 40° C.; format: physicochemical; details: for Rate constant (k) of sweetness loss / half-life: pseudo-first order assumed; for SEV / Retention of Sweetness: stored 40° C., monatin ~55 ppm, aspartame 400 ppm; for half-life: phosphate/citrate buffer, read-out: Half-life (t½) of sweetness loss (converted)
Protocol: The sensory stability of monatin solutions prepared at pH 2.5, 3.0 and 4.0 and stored at 40° C. was monitored for 100 days. Loss of sweetness from these solutions was compared with the losses of sweetness from aspartame solutions prepared and stored under identical conditions.
The sensory stability of monatin (8% SEV, ˜55 ppm, synthetic blend containing approximately 96% of the 2R,4R/2S, 4S enantiometric pair and 4% of the 2R,4S/2S,4R enantiometric pair) in phosphate/citrate buffers having a pH of 2.5, 3.0, and 4.0 was examined after storage at 40° C. The stability of monatin was compared to that of aspartame (400 ppm) in the same buffers. Three sucrose reference solutions were prepared in the same phosphate/citrate buffers as the monatin and aspartame solutions. All prepared solutions were stored in the dark.
Buffer compositions: pH 2.5 Phosphoric acid (75% solution) 0.127% (w/v) Tri-sodium citrate monohydrate 0.005% (w/v) • pH 3.0 Phosphoric acid (75% solution) 0.092% (w/v) Tri-sodium citrate monohydrate 0.031% (w/v) • pH 4.0 Phosphoric acid (75% solution) 0.071% (w/v) Tri-sodium citrate monohydrate 0.047% (w/v)
The sweetness of each sweetener relative to sucrose was assessed in duplicate by a panel (n=8) of trained sensory evaluators experienced in the sweetness estimation procedure. All samples (in the same buffers) were served in duplicate at a temperature of 22° C.±1° C. Monatin (test) solutions, coded with 3 digit random number codes were presented individually to panelists, in random order. Sucrose reference standards, ranging from 4.0-10.0% (w/v) sucrose, increasing in steps of 0.5% (w/v) sucrose were also provided. Panelists were asked to estimate sweetness by comparing the sweetness of the test solution to the sucrose standards. This was carried out by taking 3 sips of the test solution, followed by a sip of water, followed by 3 sips of sucrose standard followed by a sip of water, etc. Panelists were encouraged to estimate the sweetness to one decimal place, e.g., 6.8, 8.5. A five minute rest period was imposed between evaluating the test solutions. Panelists were also asked to rinse well and eat a cracker to reduce any potential carry over effects.
If a pseudo-first order breakdown reaction is assumed, a plot of logn percentage retention versus time (logn%RTN v. t) allows estimation of the half-life (t½) and rate constant (k) of sweetness loss under any given set of conditions. In so doing, the kinetics of monatin and aspartame sweetness loss may be summarized as follows in Table 25.

[4] = cola, sucrose 10% (control), monatin 80 ppm
[5] = lemon/lime carbonate, sucrose 10% (control), monatin 67 ppm

- Sweetness Retained ([3]; after 100 days storage at pH 2.5 at 40° C.): 11%
- Sweetness Retained ([3]; after 100 days storage at pH 3.0 at 40° C.): 31%
- Sweetness Retained ([3]; after 100 days storage at pH 4.0 at 40° C.): 58%
- Rate constant (k) of sweetness loss ([3]; pH 2.5, 40° C.): 0.013 day⁻¹
- Retention of Sweetness ([3]; pH 2.5 buffer, day 1): 94.0%
- Retention of Sweetness ([3]; pH 2.5 buffer, day 2): 92.6%
- Retention of Sweetness ([3]; pH 2.5 buffer, day 3): 89.9%
- Retention of Sweetness ([3]; pH 2.5 buffer, day 4): 85.7%
- Retention of Sweetness ([3]; pH 2.5 buffer, day 7): 81.9%
- Retention of Sweetness ([3]; pH 2.5 buffer, day 8): 81.5%
- Retention of Sweetness ([3]; pH 2.5 buffer, day 9): 81.3%
- Retention of Sweetness ([3]; pH 2.5 buffer, day 11): 79.8%
- Retention of Sweetness ([3]; pH 2.5 buffer, day 50): 57.1%
- Retention of Sweetness ([3]; pH 2.5 buffer, day 100): 10.9%
- Rate constant (k) of sweetness loss ([3]; pH 3.0, 40° C.): 0.009 day⁻¹
- Retention of Sweetness ([3]; pH 3.0 buffer, day 1): 96.5%
- Retention of Sweetness ([3]; pH 3.0 buffer, day 2): 96.1%
- Retention of Sweetness ([3]; pH 3.0 buffer, day 3): 92.3%
- Retention of Sweetness ([3]; pH 3.0 buffer, day 4): 89.9%
- Retention of Sweetness ([3]; pH 3.0 buffer, day 7): 86.3%
- Retention of Sweetness ([3]; pH 3.0 buffer, day 8): 82.9%
- Retention of Sweetness ([3]; pH 3.0 buffer, day 9): 83.1%
- Retention of Sweetness ([3]; pH 3.0 buffer, day 11): 81.5%
- Retention of Sweetness ([3]; pH 3.0 buffer, day 50): 65.9%
- Retention of Sweetness ([3]; pH 3.0 buffer, day 100): 30.8%
- Rate constant (k) of sweetness loss ([3]; pH 4.0, 40° C.): 0.005 day⁻¹
- Retention of Sweetness ([3]; pH 4.0 buffer, day 3): 95.1%
- Retention of Sweetness ([3]; pH 4.0 buffer, day 8): 87.8%
- Retention of Sweetness ([3]; pH 4.0 buffer, day 11): 84.8%
- Retention of Sweetness ([3]; pH 4.0 buffer, day 17): 81.0%
- Retention of Sweetness ([3]; pH 4.0 buffer, day 24): 82.4%
- Retention of Sweetness ([3]; pH 4.0 buffer, day 50): 74.5%
- Retention of Sweetness ([3]; pH 4.0 buffer, day 100): 57.7%
- half-life ([3]; pH 2.5, 40° C.): 55 days
- half-life ([3]; pH 3.0, 40° C.): 75 days
- half-life ([3]; pH 4.0, 40° C.): 140 days
Compound: COC(=O)[C@H](Cc1ccccc1)NC(=O)[C@@H](N)CC(=O)O [Aspartame, aspartame] (H-Asp-Phe-OMe)
- Aftertaste [1, 4]: Lingering sweetness
- Flavor Profile [1, 4]: Sweet flavor, flatter
- Mouthfeel [1, 4]: Thinner mouthfeel
- Sweetness Profile [1, 4]: Delayed sweetness
- Flavor Profile [1, 5]: Slightly lacking upfront.
- Sweetness Profile [1, 5]: Sweetness onset quite
- Average Score ([1]; cola, monatin 80 ppm): 3.3
- Average Score ([1]; lemon/lime carbonate, monatin 67 ppm): 4.0
- Comments (sensory evaluation) [2]: Balanced sweetness/acidity profile. Very
- SEV ([3]; pH 2.5 buffer, day 0): 7.34 % sucrose
- SEV ([3]; pH 2.5 buffer, day 1): 6.90 % sucrose
- SEV ([3]; pH 2.5 buffer, day 2): 6.80 % sucrose
- SEV ([3]; pH 2.5 buffer, day 3): 6.60 % sucrose
- SEV ([3]; pH 2.5 buffer, day 4): 6.29 % sucrose
- SEV ([3]; pH 2.5 buffer, day 7): 6.01 % sucrose
- SEV ([3]; pH 2.5 buffer, day 8): 5.98 % sucrose
- SEV ([3]; pH 2.5 buffer, day 9): 5.97 % sucrose
- SEV ([3]; pH 2.5 buffer, day 11): 5.86 % sucrose
- SEV ([3]; pH 2.5 buffer, day 50): 4.19 % sucrose
- SEV ([3]; pH 2.5 buffer, day 100): 0.80 % sucrose
- SEV ([3]; pH 3.0 buffer, day 0): 7.15 % sucrose
- SEV ([3]; pH 3.0 buffer, day 1): 6.90 % sucrose
- SEV ([3]; pH 3.0 buffer, day 2): 6.87 % sucrose
- SEV ([3]; pH 3.0 buffer, day 3): 6.60 % sucrose
- SEV ([3]; pH 3.0 buffer, day 4): 6.43 % sucrose
- SEV ([3]; pH 3.0 buffer, day 7): 6.17 % sucrose
- SEV ([3]; pH 3.0 buffer, day 8): 5.93 % sucrose
- SEV ([3]; pH 3.0 buffer, day 9): 5.94 % sucrose
- SEV ([3]; pH 3.0 buffer, day 11): 5.83 % sucrose
- SEV ([3]; pH 3.0 buffer, day 50): 4.71 % sucrose
- SEV ([3]; pH 3.0 buffer, day 100): 2.20 % sucrose
- SEV ([3]; pH 4.0 buffer, day 0): 7.10 % sucrose
- SEV ([3]; pH 4.0 buffer, day 3): 6.75 % sucrose
- SEV ([3]; pH 4.0 buffer, day 8): 6.23 % sucrose
- SEV ([3]; pH 4.0 buffer, day 11): 6.02 % sucrose
- SEV ([3]; pH 4.0 buffer, day 17): 5.75 % sucrose
- SEV ([3]; pH 4.0 buffer, day 24): 5.85 % sucrose
- SEV ([3]; pH 4.0 buffer, day 50): 5.29 % sucrose
- SEV ([3]; pH 4.0 buffer, day 100): 4.10 % sucrose
